Data on ten molecules can be found in article PMC3164776 (Biochemistry, 2010).

Several values for one entry are separate records, joined by “and”; a condition that tells them apart may be missing. Equal values may be shown once. Read-outs that look alike come from different tables or passages of the source.

The subject of one series is KB-V1 cells. The settings on record: for effect on MDR phenotype: cytotoxicity of paclitaxel and vinblastine, Supplemental Information 2; for change of LD50 / resistance in presence of 5-CHInd: 10 μM 5-CHInd over 72 hours, Figure 4A.
Another series has as its system MDCK monolayers. Nature of the series: Monolayer efflux experiment, MDCK monolayers. The settings on record: substance alone (10 μM 5-CHInd, 3 μM rhodamine 123, 4 μM calcein-AM).
The target of series [1] is P-gp (MDCK-MDR1 monolayers) (Homo sapiens, UniProt P08183). The experiment in a line: Monolayer efflux experiment, MDCK-MDR1 monolayers.
Sequence of P-gp (MDCK-MDR1 monolayers) (P08183 whole entry): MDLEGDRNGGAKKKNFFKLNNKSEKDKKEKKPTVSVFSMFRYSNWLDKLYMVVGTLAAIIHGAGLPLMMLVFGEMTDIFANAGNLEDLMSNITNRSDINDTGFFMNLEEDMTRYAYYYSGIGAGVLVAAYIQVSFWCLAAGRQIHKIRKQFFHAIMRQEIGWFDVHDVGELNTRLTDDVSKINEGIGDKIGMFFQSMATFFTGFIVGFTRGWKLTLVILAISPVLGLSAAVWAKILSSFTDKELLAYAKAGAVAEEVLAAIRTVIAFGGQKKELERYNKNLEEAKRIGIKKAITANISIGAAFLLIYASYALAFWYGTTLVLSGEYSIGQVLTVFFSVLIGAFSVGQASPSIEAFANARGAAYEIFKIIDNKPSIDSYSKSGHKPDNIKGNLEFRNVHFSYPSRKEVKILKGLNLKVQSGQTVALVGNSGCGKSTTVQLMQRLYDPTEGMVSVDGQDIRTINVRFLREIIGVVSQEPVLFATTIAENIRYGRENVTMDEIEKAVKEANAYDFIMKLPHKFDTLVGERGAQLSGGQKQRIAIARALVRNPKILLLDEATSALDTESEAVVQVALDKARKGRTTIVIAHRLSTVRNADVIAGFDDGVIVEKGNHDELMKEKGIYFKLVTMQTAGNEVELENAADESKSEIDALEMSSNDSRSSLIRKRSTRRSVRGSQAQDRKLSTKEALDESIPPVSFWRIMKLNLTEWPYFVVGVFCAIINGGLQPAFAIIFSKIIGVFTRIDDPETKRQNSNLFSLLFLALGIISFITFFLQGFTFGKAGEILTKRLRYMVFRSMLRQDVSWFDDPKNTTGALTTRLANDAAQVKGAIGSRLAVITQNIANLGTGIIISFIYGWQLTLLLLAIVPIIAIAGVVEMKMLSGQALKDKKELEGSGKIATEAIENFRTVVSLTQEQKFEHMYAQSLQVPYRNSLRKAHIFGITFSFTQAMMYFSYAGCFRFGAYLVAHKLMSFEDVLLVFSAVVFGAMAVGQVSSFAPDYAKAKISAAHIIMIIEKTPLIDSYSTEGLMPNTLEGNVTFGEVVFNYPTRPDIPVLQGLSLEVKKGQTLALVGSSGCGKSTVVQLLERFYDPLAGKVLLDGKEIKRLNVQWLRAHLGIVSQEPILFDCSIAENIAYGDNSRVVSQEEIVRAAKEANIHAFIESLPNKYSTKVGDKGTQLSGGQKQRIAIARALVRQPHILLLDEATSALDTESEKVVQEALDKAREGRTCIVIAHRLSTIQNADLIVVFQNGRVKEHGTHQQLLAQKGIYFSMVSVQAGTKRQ
Series [2] in a line: Monolayer efflux experiment, MDCK monolayers. The settings on record: dog.
The target of a further series is P-gp (MDR1) (Homo sapiens, UniProt P08183). The experiment in a line: Monolayer efflux experiment, MDCK-MDR1 monolayers. Particulars: dog.
Sequence of P-gp (MDR1) (P08183 whole entry): as above
The target of series [3] is T1, P-gp (Homo sapiens, UniProt P08183). Nature of the series: P-gp ATPase assay, hydrolysis of [γ-32P]-ATP by P-gp membranes. It is filed as biochemical.
T1 sequence (P08183 whole entry): as above
The test system of the next series is KB3-1 cells. The experiment in a line: MTT cytotoxicity assay in KB3-1 cells. It is filed as cell-based. For orientation: Tetrazolium dyes change colour on reduction, which living cells bring about.
Series [4] concerns the target T1, P-gp. The experiment in a line: PDSP cell-based screen: accumulation of calcein-AM in Caco-2 cells. Particulars: analogs of the screened nucleoside library.
[5] abbreviates: substance alone (10 μM 5-CHInd, 3 μM rhodamine 123, 4 μM calcein-AM), mean ± SEM.

For the molecule `OC[C@H]1O[C@@H](n2ccc3cc(-c4ccccc4)ccc32)C[C@@H]1O` [5-PhInd, 5-phenyl indolyl 2′-deoxyribose], the “effect on MDR phenotype” value with KB-V1 cells (KB-V1) is listed as “no significant effects on MDR phenotype”.
For the molecule `CC[C@]1(O)C[C@@H]2CN(CCc3c([nH]c4ccccc34)[C@@](C(=O)OC)(c3cc4c(cc3OC)N(C)[C@H]3[C@@](O)(C(=O)OC)[C@H](OC(C)=O)[C@]5(CC)C=CCN6CC[C@]43[C@@H]65)C2)C1` [Vinblastine, reference compound], the “change of LD50 / resistance in presence of 5-CHInd” value (“change of LD50 / resistance” below) with KB-V1 cells (KB-V1) is “cells become more resistant”.
Take Calcein-AM: the “BL→AP/AP→BL (Peff ratio)” value is given as 2.6 ± 0.3 in the series on MDCK monolayers, ~ 1 in series [1] (4 μM calcein-AM + 10 μM 5-CHInd) and 2940 ± 120 in series [1] (setting [5]).
For orientation: efflux ratio means the permeability from basolateral to apical divided by that in the opposite direction, in the common usage. Consider `COC(=O)c1ccccc1-c1c2ccc(=N)cc-2oc2cc(N)ccc12` [Rhodamine 123], for which the efflux ratio at 60 min, 3 μM in series [2] is 1.2 ± 0.2; on P-gp (MDR1) it was 72.7 ± 15.3. In addition, in series [1] (setting [5]), the “BL→AP/AP→BL (Peff ratio)” value is listed as 72.7.
Take `OC[C@H]1O[C@@H](n2ccc3cc(C4=CCCCC4)ccc32)C[C@@H]1O` [5-CEInd, 5-cyclohexene indolyl 2′-deoxyribose]: the “effect on MDR phenotype” value in the series with KB-V1 cells (KB-V1) was “no significant effects on MDR phenotype”.
For the molecule `COc1cccc2c1C(=O)c1c(O)c3c(c(O)c1C2=O)C[C@@](O)(C(=O)CO)C[C@@H]3O[C@H]1C[C@H](N)[C@H](O)[C@H](C)O1` [Doxorubicin, reference compound], the “change of LD50 / resistance” value in the series with KB-V1 cells (KB-V1) is recorded as “cells become more resistant”.
Usually Km stands for the substrate concentration at which the rate is half of its maximum. Take `COc1cc2c(c(OC)c1OC)-c1ccc(OC)c(=O)cc1[C@@H](NC(C)=O)CC2` [Colchicine, reference compound]: the “change of LD50 / resistance” value with KB-V1 cells (KB-V1) is listed as “did not influence the LD50 values”. In addition, on P-gp [3], the Km amounted to 37 ± 8 µM.
On to `CC(=O)O[C@H]1C(=O)[C@@]2(C)[C@H]([C@H](OC(=O)c3ccccc3)[C@]3(O)C[C@H](OC(=O)[C@H](O)[C@@H](NC(=O)c4ccccc4)c4ccccc4)C(C)=C1C3(C)C)[C@]1(OC(C)=O)CO[C@@H]1C[C@@H]2O` [Paclitaxel, reference compound], for which the “potentiating effect of 5-CHInd” value in the series with KB3-1 cells (KB3-1, does not overexpress P-gp, Supplemental Information 1) is on record as “not observed”. The “change of LD50 / resistance” value in the series on KB-V1 cells (KB-V1) was “decreases”. Besides, the LD50 in the series on KB-V1 cells (KB-V1, 48 hours, in presence of 50 μM 5-CHInd) is 0.49 ± 0.03 µM; in the series on KB-V1 cells (KB-V1, 48 hours, no treatment with 5-CHInd) it was 4.0 ± 0.24 µM.
In the case of `O=[N+]([O-])c1ccc2c(ccn2C2CC(O)C(CO)O2)c1` (stereo not shown) [5-NInd], the “interaction with P-gp” value at P-gp [4] is “do not interact with P-gp”.
In general, Ki refers to a dissociation constant, usually derived from enzyme kinetics or from competition with a known ligand. A lower Ki goes with higher affinity. `OC[C@H]1O[C@@H](n2ccc3cc(C4CCCCC4)ccc32)C[C@@H]1O` [5-CHInd, 5-cyclohexyl indolyl 2′-deoxyribose]: the LD50 amounted to 45 ± 3 µM in the series with KB3-1 cells (KB3-1 MDR −/−, 72 hours post-treatment, MTT) and 44 ± 5 µM in the series with KB-V1 cells (KB-V1 (MDR positive), 72 hours post-treatment, MTT). In addition, the “BL→AP/AP→BL (Peff ratio)” value is 8.7 ± 1.3 in the series on MDCK monolayers; 11.1 and 11.1 ± 2.5 in series [1] (setting [5]). Also, the maximal non-toxic dose with KB-V1 cells (48 hour period) stood at 50 µM; with KB-V1 cells (72 hour period), 10 µM. Moreover, in the series on KB-V1 cells (MTT assay), the “concentration at which cytotoxic” value was “greater than 50 μM”. The molecule further displayed an inhibition constant Ki at P-gp [3] of 6.5 nM. Moreover, on P-gp [3], the Km is 0.06 ± 0.01 µM. Moreover, the Vmax at P-gp [3] turned out to be 16 ± 0.2 nmol Pi/min/mg protein. At P-gp [3] (Ki vs Km value of 60 nM), the “fold by which Ki is lower than Km” value was ~ 9 fold.
